Assay results as given in patent publication US5496810A, “Pyrimidine deoxyribonucleoside potentiation of combination therapy based on 5-fluorouracil and interferon” (Montefiore Medical Center, priority 1994, dated 1996).

Tested on: HT-29 human carcinoma cells
Experiment: cells
Conditions: for Cloning Efficiency (% of control): 72 hours
Procedure: HT-29 human carcinoma cells (ATCC No. HTB-38) were maintained in RPMI 1640 with 10%v/v fetal bovine serum (GIBCO) in a humidified, 5% CO2 atmosphere at 37° C. Cells were plated in 24 well plates (150 cells per well) in RPMI 1640 medium with 10% v/v dialyzed fetal bovine serum. […] The various agents were diluted in phosphate-buffered saline (PBS), and control wells received vehicle alone. After 72 hours, drug containing medium was removed and replaced with RPMI 1640 with 10%v/v fetal bovine serum. Cell colonies were allowed to grow for an additional 7-10 days, at which point they were stained and counted. […] Data are means of at least 3 determinations.

[1] = 5-FU 0, IFN 500 u/ml, 5-ETH or 5-PRO 150 μM
[2] = 5-FU 0.05 μM, IFN 500 u/ml, 5-ETH or 5-PRO 150 μM
[3] = 5-FU 0.10 μM, IFN 500 u/ml, 5-ETH or 5-PRO 150 μM
[4] = 5-FU 0.25 μM, alone (CONT) or with IFN 500 u/ml, 5-ETH or 5-PRO 150 μM
[5] = 5-FU 0.50 μM, alone (CONT) or with IFN 500 u/ml, 5-ETH or 5-PRO 150 μM
[6] = 5-FU 1.0 μM, alone (CONT) or with IFN 500 u/ml, 5-ETH or 5-PRO 150 μM
[7] = 5-FU 1.5 μM, alone (CONT) or with IFN 500 u/ml, 5-ETH or 5-PRO 150 μM

Structure (SMILES) | increased the cytotoxicity of 5-fluorouracil [times] | Cloning Efficiency (% of control) [1] [%] | Cloning Efficiency (% of control) [2] [%] | Cloning Efficiency (% of control) [3] [%] | Cloning Efficiency (% of control) [4] [%] | Cloning Efficiency (% of control) [5] [%] | Cloning Efficiency (% of control) [6] [%] | Cloning Efficiency (% of control) [7] [%] | Cloning Efficiency (% of control) (5-FU 2.0 μM, alone (CONT) or with IFN 500 u/ml, 5-PRO 150 μM) [%] | Cloning Efficiency (% of control) (5-FU 3.0 μM, alone (CONT) or with IFN 500 u/ml, 5-PRO 150 μM) [%] | IC50 (Homo sapiens, HT-29, 72 h, read-out: 5-FU IC50, with 5-propynyloxy-2'-deoxyuridine (150 μM), 3 days of drug treatment) [nM] | inhibition at 2 µM (Homo sapiens, HT-29, 72 h, read-out: reduction in colonies) [%]
C#CCOc1cn([C@H]2C[C@H](O)[C@@H](CO)O2)c(=O)[nH]c1=O [5-propynyloxy-2'-deoxyuridine, 5-(2-propynyloxy)-2'-deoxyuridine] | 7.7 | 105 | 100 | 81 | 51 | 26 | 9 | 4 | 2 | 0 | – | –
O=c1[nH]cc(F)c(=O)[nH]1 [5-FU, 5-fluorouracil] | – | – | – | – | – | – | – | – | – | – | 260 | 50
CCOc1cn([C@H]2C[C@H](O)[C@@H](CO)O2)c(=O)[nH]c1=O [5-ethoxy-2'-deoxyuridine] | 5.7 | 89 | 81 | 80 | 60 | 38 | 13 | 4 | – | – | – | –
